Source: patent US8097592B2, “Cocrystal of C-glycoside derivative and L-proline” (Astellas Pharma Inc., priority 2006, dated 2012)
pIC50: −log10 of the molar value.

Key:
[1] = Storage stability test (X-ray powder diffraction at various humidities and storage conditions); assay type: physicochemical
Protocol: (2) Humidity-Controlled Measurement “MAC Science […] 22 with a multifunctional humidity and temperature converter ([…] 235)” equipped with a copper X-ray tube was used under the conditions of a current of 350 mA, a tube voltage of 50 kV, a sampling width of 0.020°, a scanning rate of 3°/min, wavelength of 1.54056 Å, and measurement angles of diffraction range of (2θ): 5 to 40°. [Storage Stability Test] The measurement of X-ray powder diffraction was conducted continuously at 25° C. in a relative humidity range of 2 to 88%.

[2] = system: KK-A^y mice; test: Test for confirming effect of antihyperglycemic action (blood sugar AUC 0 to 8 hours); assay type: in vivo; settings: non-fasted male KK-A^y mice, oral, 1 mg/10 mL suspension at 10 mL/kg
Protocol: (Test 2): [Test for Confirming Effect of Antihyperglycemic Action] Non-fasted KK-A^y mice (Clea Japan, Inc., male) were used as a test animal. The cocrystal of the present invention was suspended in an aqueous 0.5% methyl cellulose solution, in a concentration of 1 mg/10 mL. The body weight of each mouse was measured, and the suspension of the cocrystal of the present invention was forcibly administered orally in an amount of 10 mL/kg. Only the aqueous 0.5% methyl cellulose solution was administered to a control group. The number of mice per each group was 6. Blood samples were taken from the tail vein of each mouse right before administration and 1, 2, 4 and 8 hours after administration. Blood sugar value was measured using Glucose CII Test Wako (Wako Pure Chemical Industries, ltd.). From the blood sugar values of the cocrystal of the present invention-administered group at 0 to 8 hours were calculated an area under blood sugar value-time curve (AUC) according to the trapezoidal method; a ratio (%) of that area to the area of control group was determined; and it was taken as intensity of […] action.

[3] = target: Human Na^+-Glucose Cotransporter (Human SGLT2) (Homo sapiens, UniProt P31639); test: cell-based
Sequence of Human Na^+-Glucose Cotransporter (Human SGLT2) (P31639 whole entry): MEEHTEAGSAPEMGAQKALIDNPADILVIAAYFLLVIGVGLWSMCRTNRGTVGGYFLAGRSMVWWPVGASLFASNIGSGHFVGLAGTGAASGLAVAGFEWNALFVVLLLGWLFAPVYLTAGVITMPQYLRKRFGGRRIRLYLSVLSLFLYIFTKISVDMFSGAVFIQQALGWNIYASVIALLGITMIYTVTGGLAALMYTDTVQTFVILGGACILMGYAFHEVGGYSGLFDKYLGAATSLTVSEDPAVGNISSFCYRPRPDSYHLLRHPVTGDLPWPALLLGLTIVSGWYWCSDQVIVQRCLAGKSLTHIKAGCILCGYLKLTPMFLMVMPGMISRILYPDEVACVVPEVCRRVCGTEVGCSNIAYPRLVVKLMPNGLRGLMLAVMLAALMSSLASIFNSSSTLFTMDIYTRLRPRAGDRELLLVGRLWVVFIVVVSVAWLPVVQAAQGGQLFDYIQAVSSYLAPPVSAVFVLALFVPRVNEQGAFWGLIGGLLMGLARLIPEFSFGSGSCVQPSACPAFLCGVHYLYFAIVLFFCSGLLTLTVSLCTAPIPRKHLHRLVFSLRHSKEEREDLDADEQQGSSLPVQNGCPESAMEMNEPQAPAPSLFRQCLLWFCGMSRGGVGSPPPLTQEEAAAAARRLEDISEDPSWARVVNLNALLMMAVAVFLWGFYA
Protocol: (Test 1) [Test for Confirming Effect of Inhibiting Activity of Human Na^+-Glucose Cotransporter (Human SGLT2)]
3) Measurement of Inhibition of methyl-α-D-glucopyranoside Intake
After removing the medium of a CHO cell which stably express the human SGLT2, a pretreatment buffer solution (buffer solution of pH 7.4 containing choline chloride (140 mM), potassium chloride (2 mM), calcium chloride (1 mM), magnesium chloride (1 mM), 2-[4-(2-hydroxyethyl)-1-piperazinyl]ethanesulfonic acid (10 mM), and tris(hydroxymethyl)aminomethane (5 mM)) was added in the amount of 100 μl per well, and incubated at 37° C. for 20 minutes.
11 μl of methyl-α-D-(U-14C) glucopyranoside
(manufactured by Amersham Pharmacia Biotech) was added to and mixed with 1,000 μl of a buffer solution for intake containing a cocrystal of the present invention (buffer solution of pH 7.4 containing sodium chloride (140 mM), potassium chloride (2 mM), calcium chloride (1 mM), magnesium chloride (1 mM), methyl-α-D-glucopyranoside (50 μM), 2-[4-(2-hydroxyethyl)-1-piperazinyl]ethanesulfonic acid (10 mM), and tris(hydroxymethyl)aminomethane (5 mM)) to prepare a buffer solution for intake. A buffer solution for intake without a test crystal was prepared for a control group. […]

[4] = Moisture absorptivity test (weight change, VTI SGS-100); assay type: physicochemical; settings: for moisture absorption behaviour: interval 5%
Protocol: [Moisture Absorptivity Test] Weight change was measured by using of “VTI SGS-100” under the conditions of temperature=25° C., relative humidity range=5 to 95%, and relative humidity interval=5%. […] Further, while known compound A gives moisture absorption curves slightly different from each other depending upon the particle size and crystal habit, there was a case that 3.2% of water was desorbed and absorbed at 25° C. at 5 to 95% RH.

[5] = 25° C., relative humidity range 5 to 95%

Row | Compound | physical stability on standing ([1]; 40° C./75% RH/open) | physical stability on standing ([1]; 60° C./uncontrolled humidity) | physical stability on standing ([1]; 80° C./uncontrolled humidity) | physical change on standing ([1]; up to 7 days at room temperature (25° C.) at 63.5% RH to 84% RH) | intensity of antihyperglycemic action (ratio of blood sugar AUC to control group) [2] | pIC50 [3] | physical stability in the moisture absorptivity test [4, 5] | moisture absorption behaviour [4, 5] | moisture content ([4]; 25° C., total relative humidity range of 5 to 95%) | X-ray powder diffraction change associated with the change of relative humidity ([1]; 25° C., relative humidity range of 2 to 88%, continuous measurement) | physical stability of crystals of free form ([1]; crystals from various crystallization conditions, room temperature and low humidity) | water desorbed and absorbed ([4]; 25° C. at 5 to 95% RH) | weight change ([4]; 25° C., from relative humidity of 25 to 35%)
1 | OC[C@H]1O[C@@H](c2ccc(F)c(Cc3cc4ccccc4s3)c2)[C@H](O)[C@@H](O)[C@@H]1O [cocrystal of the present invention, cocrystal of (1S)-1,5-anhydro-1-[3-(1-benzothien-2-ylmethyl)-4-fluorophenyl]-D-glucitol and L-proline] | physically stable for at least two months | physically stable for at least two months | physically stable for at least two months | no physical change | strong antihypoglycemic action | 8.24 | stable physically | no moisture absorptivity | ≤ 0.7% |  |  |  | 
2 | OC[C@H]1O[C@@H](c2ccc(F)c(Cc3cc4ccccc4s3)c2)[C@H](O)[C@@H](O)[C@@H]1O [known compound A, (1S)-1,5-anhydro-1-[3-(1-benzothien-2-ylmethyl)-4-fluorophenyl]-D-glucitol, reference compound] |  |  |  |  |  |  |  | non-stoichiometric moisture absorption accompanied by physical change at low humidity |  | shift of diffraction angle | physically unstable crystals | 3.2% | sharp increase in weight
